This is an account of results in patent US20250368647A1, “NITROGEN CONTAINING CONDENSED 2,3-DIHYDROQUINAZOLINONE COMPOUNDS AS NAV1.8 INHIBITORS” (GLAXOSMITHKLINE INTELLECTUAL PROPERTY DEVELOPMENT LIMITED, priority 2022, published 2025).

Structures are written as SMILES.

In the experiment the target is human Nav1.8 (Homo sapiens (Human), UniProt Q9Y5Y9). The experiment in a line: QPatch 48 HTX voltage-clamp electrophysiology, half inactivation state (V1/2) protocol, HEK293-Nav1.8 cells. The experiment is classed as cell-based. As to conditions: HEK293 cells expressing human Nav1.8, human Navβ1 and human TREK1, P2 current. As for the experimental part: Human embryonic kidney 293 cells (HEK293) expressing human Nav1.8, human Navβ1 and human TREK1 (HEK293-Nav1.8) were grown in T150 cell culture flasks at 37° C., 5% CO2 incubator. HEK293-Nav1.8 were passaged every 2-3 days when confluency reached 80-90% in T150 cell culture flasks.
Chain of human Nav1.8 (Q9Y5Y9 whole entry): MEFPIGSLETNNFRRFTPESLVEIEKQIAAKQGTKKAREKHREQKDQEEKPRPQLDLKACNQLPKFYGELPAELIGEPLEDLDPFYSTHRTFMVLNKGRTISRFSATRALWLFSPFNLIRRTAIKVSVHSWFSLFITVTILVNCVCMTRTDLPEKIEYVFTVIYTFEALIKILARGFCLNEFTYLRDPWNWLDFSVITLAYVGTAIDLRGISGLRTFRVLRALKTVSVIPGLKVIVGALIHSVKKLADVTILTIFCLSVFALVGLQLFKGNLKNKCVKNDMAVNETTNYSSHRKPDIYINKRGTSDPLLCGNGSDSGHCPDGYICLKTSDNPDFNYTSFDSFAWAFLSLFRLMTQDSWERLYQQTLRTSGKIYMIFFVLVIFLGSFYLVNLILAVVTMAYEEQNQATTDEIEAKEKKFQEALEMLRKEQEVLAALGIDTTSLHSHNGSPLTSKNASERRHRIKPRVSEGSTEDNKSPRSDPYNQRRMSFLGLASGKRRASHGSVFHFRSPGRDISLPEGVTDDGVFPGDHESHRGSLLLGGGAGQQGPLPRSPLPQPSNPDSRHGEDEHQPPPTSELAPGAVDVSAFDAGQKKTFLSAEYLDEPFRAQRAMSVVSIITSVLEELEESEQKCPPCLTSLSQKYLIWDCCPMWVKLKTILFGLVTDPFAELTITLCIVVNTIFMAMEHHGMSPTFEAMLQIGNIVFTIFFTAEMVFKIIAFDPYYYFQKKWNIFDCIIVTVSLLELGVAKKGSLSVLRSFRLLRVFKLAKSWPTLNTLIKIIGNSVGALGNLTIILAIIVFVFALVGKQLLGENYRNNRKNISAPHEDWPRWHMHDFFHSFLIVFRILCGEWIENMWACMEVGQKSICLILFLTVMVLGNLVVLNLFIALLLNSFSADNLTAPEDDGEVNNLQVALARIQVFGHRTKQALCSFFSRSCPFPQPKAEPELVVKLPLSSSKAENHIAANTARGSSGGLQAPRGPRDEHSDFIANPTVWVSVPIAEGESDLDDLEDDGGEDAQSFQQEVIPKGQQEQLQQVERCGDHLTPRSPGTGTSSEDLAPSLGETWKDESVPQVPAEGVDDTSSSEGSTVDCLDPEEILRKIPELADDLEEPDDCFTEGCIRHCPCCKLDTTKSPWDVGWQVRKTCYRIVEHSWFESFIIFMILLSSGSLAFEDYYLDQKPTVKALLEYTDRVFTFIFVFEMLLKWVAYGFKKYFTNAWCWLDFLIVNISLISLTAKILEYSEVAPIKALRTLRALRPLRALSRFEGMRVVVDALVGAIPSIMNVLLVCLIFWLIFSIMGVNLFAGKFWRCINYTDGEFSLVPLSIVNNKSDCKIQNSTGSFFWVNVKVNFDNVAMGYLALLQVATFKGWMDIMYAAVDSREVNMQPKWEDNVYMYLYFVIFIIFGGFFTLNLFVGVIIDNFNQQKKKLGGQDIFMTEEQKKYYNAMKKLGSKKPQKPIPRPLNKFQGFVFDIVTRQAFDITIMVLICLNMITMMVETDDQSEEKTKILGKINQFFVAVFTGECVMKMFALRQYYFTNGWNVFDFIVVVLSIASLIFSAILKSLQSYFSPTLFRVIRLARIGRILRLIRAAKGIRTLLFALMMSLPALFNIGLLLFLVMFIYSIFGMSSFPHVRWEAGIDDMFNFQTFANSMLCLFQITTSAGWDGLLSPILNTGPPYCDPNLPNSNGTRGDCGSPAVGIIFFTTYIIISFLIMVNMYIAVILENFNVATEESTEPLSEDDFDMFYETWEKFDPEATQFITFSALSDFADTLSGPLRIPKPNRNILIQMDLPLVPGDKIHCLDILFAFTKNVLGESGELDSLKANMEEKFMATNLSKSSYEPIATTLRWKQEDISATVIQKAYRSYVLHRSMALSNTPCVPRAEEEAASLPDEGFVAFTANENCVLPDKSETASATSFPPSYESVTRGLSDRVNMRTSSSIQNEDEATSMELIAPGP
Chain of human Nav1.8 (Q07699 19-218 partner): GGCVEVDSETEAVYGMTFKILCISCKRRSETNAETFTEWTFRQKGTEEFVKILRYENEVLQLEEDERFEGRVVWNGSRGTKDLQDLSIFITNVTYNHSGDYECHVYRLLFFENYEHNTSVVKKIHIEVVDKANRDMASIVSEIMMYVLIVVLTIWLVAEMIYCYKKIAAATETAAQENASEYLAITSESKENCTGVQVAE
Pharmacological assessment of compounds of the invention was performed using the QPatch 48 HTX electrophysiological platform. HEK293-Nav1.8 cells were prepared on the day of use by removing culture media, washing in DPBS, adding Accutase (2 mL to cover the surface, aspirate 1 mL then 1-2 minutes at 37° C.) followed by addition of CHO-SFM II to stop the enzyme digestion and in order to obtain a suspension of 3×10^6 cell/mL.
Compounds of the invention were prepared in an extracellular solution of the following composition: NaCl (145 mM), KCl (4 mM), CaCl2) (2 mM), MgCl (2 mM), HEPES (1 mM), Glucose (10 mM), pH 7.4 with NaOH Osmolality 300 mOsM/L. An intracellular solution of the following composition was used: CsF (115 mM), CsCl (20 mM), NaCl (5 mM), EGTA (10 mM), HEPES (10 mM), Sucrose (20 mM), pH 7.2 with CsOH Osmolality 310 mOsm/L.
Utilizing the voltage-clamp mode in the QPatch 48 HTX system a half inactivation state voltage protocol (V1/2) was used to determine pharmacological activity of compounds of the invention at Nav1.8 ion channels. A V1/2 protocol was utilized with the following voltage steps: a holding voltage of −100 mV was established followed by a 20 ms voltage step to 0 mV (P1), followed by an inactivating voltage step at −46 mV for 8 seconds, followed by a step to −100 mV for 20 ms, before a 20 ms step to 0 mV (P2), then returned to the holding voltage of −100 mV. This voltage protocol was repeated at a frequency of every 15 seconds, the current magnitude was quantified at the P2 step throughout the recording. Inhibition of the measured current amplitude with compounds of the invention was analyzed by fitting a 4-6 points dose-response curve allowing determination of the fifty percent inhibition concentration (IC50). P2 currents were normalized according to measurements made at baseline (Baseline, vehicle only), after compound (Input, at each test concentration), and after positive reference compound (FullResponse, to achieve complete block), fit to the following equation: […]
To assess current run-down over the course of the experiment vehicle-only wells were utilized and the normalized current with vehicle-only (n.IVEH) was determined. To correct the compound response for run-down, the currents were corrected according to the following formula: […]
Compound inhibition was fitted to the following Hill Equation to estimate the half maximal inhibition concentration (IC50)
[formula] • where Y is the normalized run-down corrected inhibition relative to the vehicle control (equivalent to n.IRD_Correct), C the test compound concentration, IC50 the concentration of test compound to inhibit the sodium current by 50%, and h the Hill coefficient.

`Cl.[2H]C1([2H])N2C(=O)c3cc(F)c(F)cc3N1c1ccc(F)c(Cl)c1CNCCc1[nH]c(=O)ccc12` [Example 65, 9-Chloro-2,3,8-trifluoro-10,11,12,13-tetrahydro-19H-5,18-methanodibenzo[c,f]pyrido[3,2-j][1,5,9]triazacyclotridecine-15,19(14H)-dione-20,20-d2 hydrochloride]: the “Nav1.8, pIC50” value is reported as 8.3.
Still for that read-out and setting: the value for `COc1c(F)ccc2c1CNCCc1[nH]c(=O)ccc1N1CN2c2cc(C#N)c(F)cc2C1=O.Cl` [Example 73, 2,8-Difluoro-9-methoxy-15,19-dioxo-10,11,12,13,14,15-hexahydro-19H-5,18-methanodibenzo-[c,f]pyrido[3,2-j][1,5,9]triazacyclotridecine-3-carbonitrile hydrochloride] was 6.1.
On to `CC[C@H]1NCCc2[nH]c(=O)ccc2N2CN(c3cc(C(F)(F)F)c(F)cc3C2=O)c2ccc(F)cc21` [Example 127, (10R)-10-ethyl-2,8-difluoro-3-(trifluoromethyl)-10,11,12,13-tetrahydro-19H-5,18-methanodibenzo[c,f]pyrido[3,2-j][1,5,9]triazacyclotridecine-15,19(14H)-dione], for which the IC50 (read-out: Nav1.8, pIC50 (converted)) was 63.1 nM.
Turning to `O=C1c2cc(C(F)(F)F)ccc2N2CN1c1ccc(=O)[nH]c1CCCCCc1cc(F)ccc12` [Example 7, 3^4-Fluoro-2^6-(trifluoromethyl)-1^1,1^2,2^1,2^2,2^3,2^4-hexahydro-2(3,1)-quinazolina-1(5,6)-pyridina-3(1,2)-benzenacyclooctaphane-1^2,2^4-dione], the “Nav1.8, pIC50” value is on record as 8.1.
Same read-out and setting: the value for `O=C1c2cc(F)c(Cl)cc2N2CN1c1ccc(=O)[nH]c1NCCCc1cc(F)ccc12` [Example 93, 3-Chloro-2,8-difluoro-10,11,12,13-tetrahydro-19H-5,18-methanodibenzo[f,i]pyrido[2,3-b]-[1,4,8]triazacyclotridecine-15,19(14H)-dione] was 8.1.
With `Cl.O=C1c2cc(F)c(F)cc2N2CN1c1ccc(=O)[nH]c1CCNCc1c2ccc(Cl)c1Cl` [Example 77, 8,9-Dichloro-2,3-difluoro-10,11,12,13-tetrahydro-19H-5,18-methanodibenzo[c,f]pyrido[3,2-j][1,5,9]triazacyclotridecine-15,19(14H)-dione hydrochloride], the “Nav1.8, pIC50” value turned out to be 8.7.
Still for that read-out and setting: as for `Cl.O=C1c2cc(F)c(F)cc2N2CN1c1ccc(=O)[nH]c1CCNCc1cc(OC(F)(F)F)ccc12` [Example 86, 2,3-Difluoro-8-(trifluoromethoxy)-10,11,12,13-tetrahydro-19H-5,18-methanodibenzo[c,f]pyrido[3,2-j][1,5,9]triazacyclotridecine-15,19(14H)-dione hydrochloride], the figure is 7.5.
On the same count and under the same terms, the value for `O=C1c2cc(Cl)c(F)cc2N2CN1c1ccc(=O)[nH]c1NCCCc1cc(F)ccc12` [Example 96, 2-Chloro-3,8-difluoro-10,11,12,13-tetrahydro-19H-5,18-methanodibenzo[f,i]pyrido[2,3-b]-[1,4,8]triazacyclotridecine-15,19(14H)-dione] was 7.5.
Same read-out and setting: as for `Cl.O=C1c2cc(Cl)c(F)cc2N2CN1c1ccc(=O)[nH]c1CCNCc1c2ccc(F)c1F` [Example 69, 2-Chloro-3,8,9-trifluoro-10,11,12,13-tetrahydro-19H-5,18-methanodibenzo[c,f]pyrido[3,2-j][1,5,9]triazacyclotridecine-15,19(14H)-dione hydrochloride], the figure is 7.6.
As for `O=C1c2cc(F)c(C(F)(F)F)cc2N2CN1c1ccc(=O)[nH]c1NCCOCc1cc(F)ccc12` [Example 129, 2^6,3^4-Difluoro-2^7-(trifluoromethyl)-1^1,1^2,2^1,2^2,2^3,2^4-hexahydro-5-oxa-8-aza-2(3,1)-quinazolina-1(5,6)-pyridina-3(1,2)-benzenacyclooctaphane-1^2,2^4-dione], the “Nav1.8, pIC50” value came to 6.4.
Same read-out and setting: as for `O=C1c2cc(F)c(C(F)(F)F)cc2N2CN1c1ccc(=O)[nH]c1CCNCc1c2ccc(F)c1Cl` [Example 58, 9-Chloro-2,8-difluoro-3-(trifluoromethyl)-10,11,12,13-tetrahydro-19H-5,18-methano-dibenzo[c,f]pyrido[3,2-j][1,5,9]triazacyclotridecine-15,19(14H)-dione], the figure is 8.9; as for `O=C1c2cnc(C(F)(F)F)cc2N2CN1c1ccc(=O)[nH]c1CCCCCc1cc(F)ccc12` [Example 9, 3^4-Fluoro-2^7-(trifluoromethyl)-1^1,1^2,2^1,2^2,2^3,2^4-hexahydro-2(3,1)-pyrido[4,3-d]pyrimidina-1(5,6)-pyridina-3(1,2)-benzenacyclooctaphane-1^2,2^4-dione], 7.3; as for `N#Cc1cc2c(cc1F)C(=O)N1CN2c2ccc(F)c(Cl)c2CNCCc2[nH]c(=O)ccc21` [Example 67, 9-chloro-2,8-difluoro-15,19-dioxo-10,11,12,13,14,15-hexahydro-19H-5,18-methanodibenzo[c,f]pyrido[3,2-j][1,5,9]triazacyclotridecine-3-carbonitrile], 8.3.
Regarding `Cl.O=C1c2cc(F)c(C(F)(F)F)cc2N2CN1c1ccc(=O)[nH]c1CCNCc1c2ccc(F)c1O` [Example 85, 2,8-Difluoro-9-hydroxy-3-(trifluoromethyl)-10,11,12,13-tetrahydro-19H-5,18-methanodibenzo[c,f]pyrido[3,2-i][1,5,9]triazacyclotridecine-15,19(14H)-dione hydrochloride], the “Nav1.8, pIC50” value was 6.4.
On to `O=C1c2cc(F)c(F)cc2N2CN1c1ccc(=O)[nH]c1NCCCc1cc(F)ccc12` [Example 91, 2,3,8-Trifluoro-10,11,12,13-tetrahydro-19H-5,18-methanodibenzo[f,i]pyrido[2,3-b]-[1,4,8]triazacyclotridecine-15,19(14H)-dione], for which the “Nav1.8, pIC50” value stood at 7.9.
The same measure, in the same setting: the value for `Cl.N#Cc1cc2c(cc1F)C(=O)N1CN2c2ccc(OC(F)(F)F)cc2CNCCc2[nH]c(=O)ccc21` [Example 88, 2-Fluoro-15,19-dioxo-8-(trifluoromethoxy)-10,11,12,13,14,15-hexahydro-19H-5,18-methanodibenzo[c,f]pyrido[3,2-j][1,5,9]triazacyclotridecine-3-carbonitrile hydrochloride] was 7.7.
The same measure, in the same setting: the value for `Cl.O=C1c2cc(F)c(C(F)(F)F)cc2N2CN1c1ccc(=O)[nH]c1CCNCCc1cc(F)ccc12` [Example 111, 2^6,3^4-Difluoro-2^7-(trifluoromethyl)-1^1,1^2,2^1,2^2,2^3,2^4-hexahydro-6-aza-2(3,1)-quinazolina-1(5,6)-pyridina-3(1,2)-benzenacyclooctaphane-1^2,2^4-dione hydrochloride] was 7.1; that for `O=C1c2cc(C(F)(F)F)ccc2N2CN1c1ccc(=O)[nH]c1CCCc1cc(F)ccc12` [Example 2, 14-Fluoro-8-(trifluoromethyl)-17,18-dihydro-1H,6H-5,11-methanodibenzo[b,k]pyridino[3,2-f][1,5]diazacyclododecine-2,6(16H)-dione] was 6.0.
Still for that read-out and setting: the value for `O=C1c2c(ccc(C(F)(F)F)c2F)N2CN1c1ccc(=O)[nH]c1NCCCc1c2ccc(F)c1F` [Example 97, 1,8,9-Trifluoro-2-(trifluoromethyl)-10,11,12,13-tetrahydro-19H-5,18-methanodibenzo[f,i]pyrido-[2,3-b][1,4,8]triazacyclotridecine-15,19(14H)-dione] was 7.6.
